For experiment [1], the system named is C. parvum. In words: C. parvum in vitro EC50 assay in HCT-8 cells. The class given is cell-based. The following applies: Cryptosporidium parvum, HCT8 cells, 24 hr, Mean +/- S.D., N = 3, 9 pt curve. As to the method: (§1) In vitro assays measuring the EC50 value for C. parvum infection may be run to determine the efficacy of the compounds. For example, human ileocecal adenocarcinoma (HCT-8) cells can be obtained from ATCC and maintained in T-75 tissue culture flasks with RPMI 1640 medium with HEPES, sodium pyruvate (1 mM), and L-glutamine (ATCC) supplemented with 10% horse serum (ATCC) and 120 U/ml penicillin and 120 μg/ml streptomycin. Cells can be plated into 384-well, tissue culture-treated, black-walled, clearbottom microwell plates (BD Falcon) at a density of 8,850 cells/well and allowed to grow to confluence. The cells may then be inoculated with 5.5×10^3 primed C. parvum oocysts (Bunchgrass Farms, Deary, ID) suspended in inoculation medium (RPMI 1640 without horse serum). Oocysts may be primed for excystation by following a previously described protocol (J. Eukaryot. Microbiol. 46:56S-57S). Briefly, oocysts can be treated for 10 min with 10 mM HCl at 37° C., centrifuged, and treated with a 2 mM solution of sodium taurocholate (Sigma-Aldrich) in phosphate-buffered saline (PBS) with Ca^2+ and Mg^2+. The suspension can be incubated for 10 min at 16° C. and then diluted in inoculation medium and added to each well. Infected cells are incubated at 37° C. for 3 h, at which point an equal volume of growth medium containing 20% horse serum (total serum concentration of 10%) is produced. Compounds are diluted and assayed at fixed doses (e.g., 0.12, 0.37, 1.1, 3.3, and 10 μM, with each concentration, n=14) for the generation of EC50 curves. In the case of final EC50 curves, three wells are left uninfected but treated with each of the corresponding concentrations of the compound to assess for background staining. All curves are generated using the log[inhibitor] versus response variable slope equation in GraphPad Prism, with the bottom constraint set equal to 0.
(§2) Such assays were prepared on HTC-8 cells and ALI. Table 2 illustrates measured EC50 at various time points.

In experiment [2] the test system is C. parvum. The experiment in a line: C. parvum in vitro EC50 assay in ALI culture. To be noted: Cryptosporidium parvum, 48 hr, Mean +/- S.D., N = 2, 5 pt curve. The experiment is classed as cell-based. As to the method: as §1, §2
Briefly, i3T3 cells were plated in CM media. Spheroids were plated on the cells. […]

In the case of `COc1ccc(NC(=O)N2CCCCN3[C@H](CN(C)S(C)(=O)=O)[C@H](c4ccc(C#Cc5ccccc5)cc4)[C@@H]3C2)cc1` [Compound 1, (8R,9R,10S)-N-(4-methoxyphenyl)-10-((N-methylmethylsulfonamido)methyl)-9-(4-(phenylethynyl)phenyl)-1,6-diazabicyclo[6.2.0]decane-6-carboxamide], the EC50 (in general, the concentration needed to bring the measured effect to its halfway point) came to 11 ± 3 nM in the experiment on C. parvum [1] and 28 ± 2 nM in the experiment on C. parvum [2].
With `COc1ccc(NC(=O)N2CCCCN3[C@H](CN(C)C)[C@H](c4ccc(C#Cc5ccccc5)cc4)[C@@H]3C2)cc1` [Compound 2, (8R,9S,10S)-10-((dimethylamino)methyl)-N-(4-methoxyphenyl)-9-(4-(phenylethynyl)phenyl)-1,6-diazabicyclo[6.2.0]decane-6-carboxamide], the EC50 with C. parvum [1] is 33 ± 9 nM; in the experiment with C. parvum [2] it was 113 ± 15 nM.
On to `CC(=O)Oc1ccccc1C(=O)Nc1ncc([N+](=O)[O-])s1` [Nitazoxanide, reference compound], for which the EC50 in the experiment with C. parvum [1] was 2190 ± 378 nM; with C. parvum [2] it was 25900 ± 4140 nM.

(Values after US12414935B2, “Compounds and methods for the treatment of parasitic diseases” (WASHINGTON UNIVERSITY, priority 2019, dated 2025).)
